From PubChem BioAssay AID1259408 (Genetic Toxicology Data Bank (GENE-TOX), 2018)
Calls of active or inactive are those of the source. How the calls were made is not given here.

Test system: GENE-TOX genotoxicity assays, various organisms and cells
Assay: GENE-TOX mutagenicity studies
Conditions: for call: Assay Type: In vivo carcinogenicity studies
[1] = Species/Cell Type: Nonhuman bone marrow, Assay Type: Chromosome aberrations, in vivo, Assay Code: CY#+, Evaluation Type: Evaluation A (Pre-1980)

SMILES: CCOS(C)(=O)=O
- mutagenic call (Species/Cell Type: Arabidopsis species, Assay Type: Gene mutation, Assay Code: ARM+D, Dose Response: With dose response, Evaluation Type: Evaluation A (Pre-1980)): active; positive
- mutagenic call (Species/Cell Type: Aspergillus nidulans, Assay Type: Forward gene mutation, Assay Code: ASF+, Evaluation Type: Evaluation A (Pre-1980)): active; positive
- mutagenic call (Species/Cell Type: Aspergillus nidulans, Assay Type: Reverse gene mutation, Assay Code: ASR+, Evaluation Type: Evaluation A (Pre-1980)): active; positive
- mutagenic call (Species/Cell Type: Chinese hamster lung (V79) cells, Assay Type: Forward gene mutation at the HPRT or ouabain locus, Assay Code: V79+, Evaluation Type: Evaluation A (Pre-1980)): active; positive
- mutagenic call (Species/Cell Type: Chinese hamster ovary (CHO) cells, Assay Type: Forward gene mutation at the HPRT locus, Assay Code: CHO+D, Dose Response: With dose response, Evaluation Type: Evaluation A (Pre-1980)): active; positive
- mutagenic call (Species/Cell Type: Drosophila melanogaster, Assay Type: Sex-linked recessive lethal gene mutation, Assay Code: SRL+, Evaluation Type: Evaluation A (Pre-1980)): active; positive
- mutagenic call (Species/Cell Type: Drosophila melanogaster, Sex: Male, Assay Type: Heritable translocation test, chromosome aberrations, Assay Code: DHT+, Evaluation Type: Evaluation A (Pre-1980)): active; positive
- mutagenic call (Species/Cell Type: Escherichia coli WP2, Assay Type: Tryptophan reverse gene mutation, Assay Code: WP2+, Evaluation Type: Evaluation A (Pre-1980)): active; positive
- mutagenic call (Species/Cell Type: Escherichia coli WP2 UVRA, Assay Type: Tryptophan reverse gene mutation, Assay Code: WPU+, Evaluation Type: Evaluation A (Pre-1980)): active; positive
- mutagenic call (Species/Cell Type: Escherichia coli polA (W3119 vs P3478), Assay Type: Rec-assay, DNA effects (bacterial DNA repair), Assay Code: RE1+, Evaluation Type: Evaluation A (Pre-1980)): active; positive
- mutagenic call (Species/Cell Type: F1 mouse, Sex: Male, Assay Type: Sperm morphology, Assay Code: SPF+, Evaluation Type: Evaluation A (Pre-1980)): active; positive
- mutagenic call (Species/Cell Type: Glycine max (soybean), Assay Type: Gene mutation, Assay Code: GLM+, Evaluation Type: Evaluation A (Pre-1980)): active; positive
- mutagenic call (Species/Cell Type: Hordeum vulgare (barley), Assay Type: Chromosome aberrations, Assay Code: HOC+D, Dose Response: With dose response, Evaluation Type: Evaluation A (Pre-1980)): active; positive
- mutagenic call (Species/Cell Type: Hordeum vulgare (barley), Assay Type: Gene mutation, Assay Code: HOM+D, Dose Response: With dose response, Evaluation Type: Evaluation A (Pre-1980)): active; positive
- mutagenic call (Species/Cell Type: Human diploid fibroblasts, Assay Type: Unscheduled DNA synthesis (UDS) in vitro, DNA effects, Assay Code: UDH+D, Dose Response: With dose response, Evaluation Type: Evaluation A (Pre-1980)): active; positive
- mutagenic call (Species/Cell Type: Human lymphocytes, Assay Type: Micronucleus test in vitro, chromosome aberrations, Assay Code: MN7+, Evaluation Type: Evaluation A (Pre-1980)): active; positive
- mutagenic call (Species/Cell Type: Human lymphocytes, Assay Type: Sister-chromatid exchange (SCE) in vitro, Assay Code: SCL+, Evaluation Type: Evaluation A (Pre-1980)): active; positive
- mutagenic call (Species/Cell Type: Human, Assay Type: Sister-chromatid exchange (SCE) in vitro, Assay Code: SC1+D, Dose Response: With dose response, Evaluation Type: Evaluation A (Pre-1980)): active; positive
- mutagenic call (Species/Cell Type: Mammalian germ cells, Sex: Male, Assay Type: Chromosome aberrations in vivo, Assay Code: CY9T, Evaluation Type: Evaluation A (Pre-1980)): no conclusion
- mutagenic call (Species/Cell Type: Mammalian polychromatic erythrocytes, Assay Type: Micronucleus test, chromosome aberrations, Assay Code: MNT+, Evaluation Type: Evaluation A (Pre-1980)): active; positive
- mutagenic call (Species/Cell Type: Mouse germ cells, Sex: Male, Assay Type: Unscheduled DNA synthesis (UDS) in vivo, DNA effects, Assay Code: UDT+, Evaluation Type: Evaluation A (Pre-1980)): active; positive
- mutagenic call (Species/Cell Type: Mouse lymphoma (L5178Y) cells, Assay Type: Forward gene mutation at the thymidine kinase (TK) locus, chromosome aberrations, Assay Code: L51+, Evaluation Type: Evaluation A (Pre-1980)): active; positive
- mutagenic call (Species/Cell Type: Mouse, Sex: Female, Assay Type: Spot test, gene mutation, Assay Code: MST+, Evaluation Type: Evaluation A (Pre-1980)): active; positive
- mutagenic call (Species/Cell Type: Mouse, Sex: Male, Assay Type: Heritable translocation test, chromosome aberrations, Assay Code: HTT+D, Dose Response: With dose response, Evaluation Type: Evaluation A (Pre-1980)): active; positive
- mutagenic call (Species/Cell Type: Mouse, Sex: Male, Assay Type: Specific locus test, gene mutation, Assay Code: SLT+, Evaluation Type: Evaluation A (Pre-1980)): active; positive
- mutagenic call (Species/Cell Type: Mouse, Sex: Male, Assay Type: Sperm morphology, Assay Code: SPI+, Evaluation Type: Evaluation A (Pre-1980)): active; positive
- mutagenic call (Species/Cell Type: Neurospora crassa, Assay Type: Aneuploidy, chromosome aberrations, Assay Code: NEN-, Evaluation Type: Evaluation A (Pre-1980)): inactive; negative
- mutagenic call (Species/Cell Type: Neurospora crassa, Assay Type: Forward gene mutation, Assay Code: NEF+, Evaluation Type: Evaluation A (Pre-1980)): active; positive
- mutagenic call (Species/Cell Type: Neurospora crassa, Assay Type: Reverse gene mutation, Assay Code: NER+, Evaluation Type: Evaluation A (Pre-1980)): active; positive
- mutagenic call [1]: active; positive
- call (Species/Cell Type: Nonhuman, Assay Code: CCG+, Evaluation Type: Evaluation A (Pre-1980)): active; positive
- mutagenic call (Species/Cell Type: Nonhuman, Assay Type: Sister-chromatid exchange (SCE) in vitro, Assay Code: SC2+D, Dose Response: With dose response, Evaluation Type: Evaluation A (Pre-1980)): active; positive
- mutagenic call (Species/Cell Type: Nonhuman, Assay Type: Sister-chromatid exchange (SCE) in vivo, Assay Code: SC3+D, Dose Response: With dose response, Evaluation Type: Evaluation A (Pre-1980)): active; positive
- mutagenic call (Species/Cell Type: Plant, Assay Type: Micronucleus test, chromosome aberrations, Assay Code: MNP-, Evaluation Type: Evaluation A (Pre-1980)): inactive; negative
- mutagenic call (Species/Cell Type: Rodents, Sex: Male, Assay Type: Dominant lethal test, Assay Code: DLT+D, Dose Response: With dose response, Evaluation Type: Evaluation A (Pre-1980)): active; positive
- mutagenic call (Species/Cell Type: Saccharomyces cerevisiae, Assay Type: Aneuploidy, chromosome aberrations, Assay Code: YEN+, Evaluation Type: Evaluation A (Pre-1980)): active; positive
- mutagenic call (Species/Cell Type: Saccharomyces cerevisiae, Assay Type: Forward gene mutation, Assay Code: YEF+, Evaluation Type: Evaluation A (Pre-1980)): active; positive
- mutagenic call (Species/Cell Type: Saccharomyces cerevisiae, Assay Type: Mitotic recombination or gene conversion, Assay Code: YEC+, Evaluation Type: Evaluation A (Pre-1980)): active; positive
- mutagenic call (Species/Cell Type: Saccharomyces cerevisiae, Assay Type: Mitotic recombination or gene conversion, Assay Code: YEH+, Evaluation Type: Evaluation A (Pre-1980)): active; positive
- mutagenic call (Species/Cell Type: Saccharomyces cerevisiae, Assay Type: Reverse gene mutation, Assay Code: YER+, Evaluation Type: Evaluation A (Pre-1980)): active; positive
- mutagenic call (Species/Cell Type: Salmonella typhimurium (one or more of the five standard strains: TA98, TA100, TA1535, TA1537, and TA1538), Assay Type: Histidine reverse gene mutation, Ames assay, Assay Code: SAL+, Evaluation Type: Evaluation A (Pre-1980)): active; positive
- mutagenic call (Species/Cell Type: Salmonella typhimurium, Escherichia coli, Serratia marcesens, Neurospora crassa, Saccharomyces cerevisiae, Chinese hamst, Assay Type: Forward and reverse gene mutation, lethal mutation, mitotic recombination and gene conversion, DNA effects, host-mediate, Assay Code: HM8+, Evaluation Type: Evaluation A (Pre-1980)): active; positive
- mutagenic call (Species/Cell Type: Schizosaccharomyces pombe, Assay Type: Forward gene mutation, Assay Code: YEY+, Evaluation Type: Evaluation A (Pre-1980)): active; positive
- mutagenic call (Species/Cell Type: Schizosaccharomyces pombe, Assay Type: Reverse gene mutation, Assay Code: YEZ+, Evaluation Type: Evaluation A (Pre-1980)): active; positive
- mutagenic call (Species/Cell Type: Syrian hamster embryo (SA7/SHE) cells, Assay Type: Cell transformation, viral enhanced, Assay Code: CT7+, Evaluation Type: Evaluation A (Pre-1980)): active; positive
- mutagenic call (Species/Cell Type: Syrian hamster embryo (SHE) cells, Assay Type: Cell transformation, clonal assay, Assay Code: CTC+, Evaluation Type: Evaluation A (Pre-1980)): active; positive
- mutagenic call (Species/Cell Type: Syrian hamster embryo (SHE) cells, Assay Type: Cell transformation, focus assay, Assay Code: CTF+, Evaluation Type: Evaluation A (Pre-1980)): active; positive
- mutagenic call (Species/Cell Type: Tradescantia species, Assay Type: Chromosome aberrations, Assay Code: TRC+D, Dose Response: With dose response, Evaluation Type: Evaluation A (Pre-1980)): active; positive
- mutagenic call (Species/Cell Type: Tradescantia species, Assay Type: Gene mutation, Assay Code: TRM+D, Dose Response: With dose response, Evaluation Type: Evaluation A (Pre-1980)): active; positive
- mutagenic call (Species/Cell Type: Vicia faba, Assay Type: Chromosome aberrations, Assay Code: VIC+D, Dose Response: With dose response, Evaluation Type: Evaluation A (Pre-1980)): active; positive
- mutagenic call (Species/Cell Type: Zea mays (corn), Assay Type: Gene mutation, Assay Code: ZEM+D, Dose Response: With dose response, Evaluation Type: Evaluation A (Pre-1980)): active; positive

SMILES: CC(=O)OC/C=C(C)/C=C/C=C(C)/C=C/C1=C(C)CCCC1(C)C
- mutagenic call (Species/Cell Type: Human, Assay Type: Sister-chromatid exchange (SCE) in vitro, Assay Code: SC1+, Evaluation Type: Evaluation B (Post-1980)): active; positive
- mutagenic call (Species/Cell Type: Nonhuman, Assay Type: Sister-chromatid exchange (SCE) in vitro, Assay Code: SC2T, Evaluation Type: Evaluation B (Post-1980)): no conclusion

SMILES: ClCc1cccnc1
- mutagenic call (Species/Cell Type: Fischer rat embryo (RLV/1706) cells, Assay Type: Cell transformation, viral enhanced, Assay Code: CTR+, Evaluation Type: Evaluation A (Pre-1980)): active; positive
- mutagenic call (Species/Cell Type: Mouse (BALB/c-3T3) cells, Assay Type: Cell transformation, Assay Code: CTB-, Evaluation Type: Evaluation A (Pre-1980)): inactive; negative
- call (Species/Cell Type: Nonhuman, Assay Code: CCG+L, Evaluation Type: Evaluation A (Pre-1980)): active; positive

SMILES: CCC1(CC)C(=O)NC(=O)NC1=O
- mutagenic call [1]: active; positive
- mutagenic call (Species/Cell Type: Nonhuman, Assay Type: Sister-chromatid exchange (SCE) in vitro, Assay Code: SC2-, Evaluation Type: Evaluation A (Pre-1980)): inactive; negative

SMILES: OCC(Br)(Br)Br
- mutagenic call (Species/Cell Type: Rodents, Sex: Female, Assay Type: Dominant lethal test, Assay Code: DLTF-, Evaluation Type: Evaluation A (Pre-1980)): inactive; negative
- mutagenic call (Species/Cell Type: Rodents, Sex: Male, Assay Type: Dominant lethal test, Assay Code: DLT-, Evaluation Type: Evaluation A (Pre-1980)): inactive; negative

SMILES: NC12CC3CC(CC(C3)C1)C2
- mutagenic call (Species/Cell Type: Fischer rat embryo (RLV/1706) cells, Assay Type: Cell transformation, viral enhanced, Assay Code: CTR-, Evaluation Type: Evaluation A (Pre-1980)): inactive; negative

SMILES: Cc1ccc(N=Nc2ccc(N(C)C)cc2)cc1
- mutagenic call (Species/Cell Type: Rat primary hepatocytes, Assay Type: Unscheduled DNA synthesis (UDS) in vitro, DNA effects, Assay Code: UDP-, Evaluation Type: Evaluation A (Pre-1980)): inactive; negative

SMILES: O=C(O)c1ccc2ccccc2n1
- mutagenic call (Species/Cell Type: Salmonella typhimurium (one or more of the five standard strains: TA98, TA100, TA1535, TA1537, and TA1538), Assay Type: Histidine reverse gene mutation, Ames assay, Assay Code: SALT, Evaluation Type: Evaluation A (Pre-1980)): no conclusion
